According to US20140057841A1, “HUMAN INSULIN AND ANALOG CONJUGATE THEREOF” (Chongqing Fagen Biomedical Inc., priority 2011, published 2014):
Read-outs that look alike come from different tables or passages of the source.

Legend:
[1] = tested on: Type 1 diabetes model of KunMing mice; experiment: Blood sugar lowering in mice Type 1 diabetes model; type: in vivo; conditions: subcutaneous 0.25 mg/kg, STZ mice; for time the blood sugar lowering effect may sustain: empty stomach blood sugar
Procedure: 70 healthy KunMing male SPF mice (purchased from the Third Military Medical Univ., China) with body weight of 25-30 g were fed with water only and no food for 14 hours, and then subject to 120 mg/kg of rapid intraperitoneal injection of streptozotocin (STZ) solution (4.8 mg/ml) that was prepared with citric acid- trisodium citrate buffer, to establish a Type 1 diabetes model. After the injection, the mice were immediately fed with food and water. After 48 hours of model establishing, blood was sampled from caudal vein, and blood sugar value was detected with glucometer (Bayer's Fast Glucometer) after fasting for 2 hours, wherein a blood sugar value of >11.1 mmol/L indicates successful modeling. […] Groups B, C, and D were respectively subject to subcutaneous administration by a dosage of 0.25 mg/kg, and group A was injected with isovolumetric solvent. Before administration (i.e., 0 hour) and after 1, 2, 6, 10, 15, 18, and 24 hours of administration, blood was sampled from caudal vein for the detection of empty stomach (fasting for 2 hours) blood sugar value. The average blood sugar value was calculated and time activity curve was made (FIG. 4).
The average blood sugar value was calculated and time activity curve was made (FIG. 5).

[2] = tested on: Type 1 diabetes model of New Zealand albino rabbits; experiment: Blood sugar lowering experiment on Type 1 diabetes model (IDDM) rabbits; type: in vivo; conditions: subcutaneous 0.2 mg/kg; for hypoglycemic activity: rabbit Type 1 diabetes model; for time the blood sugar lowering effect may sustain: tetraoxypyrimidine rabbits, empty stomach blood sugar
Procedure: 40 male New Zealand albino rabbits (purchased from the Third Military Medical Univ., China) with body weight of 2-3 kg were fed with water only and no food for 24 hours, and then subject to 5 ml/kg of ear vein single injection of tetraoxypyrimidine solution (with concentration of 20 mg/ml) to establish models. After the injection, the rabbits were immediately fed with food and water. After 3 days of model establishing, blood was sampled every day from ear vein after fasting for 6 hours, and blood sugar value was detected with glucometer, wherein a blood sugar value of >11.1 mmol/L indicates successful modeling. […] Groups B, C, and D were respectively subject to subcutaneous administration by a dosage of 0.2 mg/kg, and group A was injected with isovolumetric solvent. Before administration (i.e., 0 hour) and after 1, 2, 4, 8, 12, 24, 36, 48, 60, 72, 84, and 96 hours of administration, blood was sampled from ear vein for the detection of empty stomach (fasting for 6 hours) blood sugar value (Fast Glucometer, Bayer). The average blood sugar value was calculated and time activity curve was made (FIG. 6).
The average blood sugar value was calculated and time activity curve was made (FIG. 7).

[3] = tested on: Beagle dog Type 1 diabetes model; experiment: Blood sugar lowering experiment of DesB30-20 k conjugate on Beagle dog Type 1 diabetes model; type: in vivo, Beagle dogs
Procedure: 20 healthy Beagle dogs (purchased from the Third Military Medical Univ., China) with body weight of 5-8 kg were fed with water only and no food for 24 hours, and then subject to foreleg subcutaneous vein injection of tetraoxypyrimidine solution (200 mg/ml) and STZ solution (120 mg/ml), with respective dosage of 50 mg/kg and 30 mg/kg, to establish Type 1 diabetes models. After the injection, the dogs were immediately fed with food and water. After 72 hours of model establishing, successful modeling was indicated by the signs of polyphagia, polydipsia, polyuria, lose weight, and blood sugar value of >11.1 mmol/L. 12 modeled dogs were randomly divided into 3 groups, 4 for each group (group A, control, group B, administration by 0.05 mg/kg, and group C, administration by 0.10 mg/kg), and subject to subcutaneous administration for one time. After 0, 2, 6, 12, 18, 24, 36, 48, 72, 96, and 120 hours of administration, blood was sampled from hindlimb vein for the detection of empty stomach (fasting for 6 hours) blood sugar value (GOD-POD method). The average blood sugar value was calculated and single administration time activity curve was made (FIG. 8). […] Then, the model animals were tested with multiple times of subcutaneous administration, with an interval of 72 hours (with a dosage of 0.05 mg/kg, 0.10 mg/kg, or isovolumetric solvent) for 6 times. From Day 1 to Day 21 after the administration, empty stomach blood sugar value was detected every three days, and blood was sampled after the last administration for pharmacokinetics experiments. […] The durations of hypoglycemic activity for single and multiple administrations are basicly the same, i.e., 72 hours. During the multiple administrations, the empty stomach blood sugar value of animals in administration groups were kept in average with about 5 mmol/L, whereas the empty stomach blood sugar value of animals in control group were kept in average with about 25 mmol/L.

[4] = in human body; cited from earlier work
[5] = in animals; cited from earlier work

Row | Substance | hypoglycemic activity [1] | time the blood sugar lowering effect may sustain [1] | hypoglycemic activity [2] | time the blood sugar lowering effect may sustain [2] | further results
1 | DesB30-20K: DesB30 recombinant human insulin coupled at the ε-amino group of Lys B29 to 20K mPEG-SPA via amide bond | significant hypoglycemic activity | about 18 hours | significant hypoglycemic activity | about 55 hours | hypoglycemic activity ([3]; Beagle dogs Type 1 diabetes model, 0.05 and 0.10 mg/kg): significant hypoglycemic activity; average empty stomach blood sugar value during multiple administrations ([3]; administration groups (0.05 or 0.10 mg/kg s.c., every 72 hours, 6 times), control about 25 mmol/L): about 5 mmol/L; time blood sugar is effectively lowered ([3]; single subcutaneous administration, 0.10 mg/kg): 72 h; duration of hypoglycemic activity for single and multiple administrations ([3]; single, and multiple subcutaneous administrations (interval 72 hours, 6 times)): 72 h
2 | Ins-10K: recombinant human insulin conjugate with 10K mPEG-SPA at Lys B29, prepared as in Example 3 |  | about 12 hours |  | about 35 hours | 
3 | DesB30-10K: DesB30 recombinant human insulin coupled at the ε-amino group of Lys B29 to 10K mPEG-SPA via amide bond | significant hypoglycemic activity | about 12 hours | significant hypoglycemic activity | about 30 hours | 
4 | DesB30-5K: DesB30 recombinant human insulin coupled at the ε-amino group of Lys B29 to 5K mPEG-SPA via amide bond | significant hypoglycemic activity | about 8 hours | significant hypoglycemic activity | about 15 hours | 
5 | Ins-20K: recombinant human insulin conjugate with 20K mPEG-SPA at Lys B29, prepared as in Example 4 |  | about 18 hours |  | about 55 hours | 
6 | insulin detemir |  |  |  |  | duration of activity [4]: 24 h; duration of activity [5]: 12 h
7 | Ins-5K: recombinant human insulin conjugate with 5K mPEG-SPA at Lys B29, prepared as in Example 2 |  | about 8 hours |  | about 15 hours | 
